{"source": "patent US6689777B2", "about": "(Kenneth S. Warren Institute, priority 2001, dated 2004)", "key": {"[1]": {"system": "P. falciparum chloroquine resistant strain (CQR)", "experiment": "P. falciparum growth in culture, chloroquine resistant strain ([3H]-hypoxanthine incorporation)", "format": "cell-based", "details": "Plasmodium falciparum, Table 3, read-out: IC50 vs. P. falc. in CQR", "experimental": "To determine the effectiveness of the compounds of the present invention against the erythrocytic stage of the malarial parasite, P. falciparum was grown in human erythrocyte suspensions and maintained at 37° C. in candle jars according to the method of Trager and Jensen (15,16). Parasites were stage-synchronized by incubating mainly ring-stage infected erythrocytes in 5% sorbitol for 10 minutes at room temperature (17). Cultures undergo one growth cycle (2 days) before use. Strains used include the chloroquine sensitive strains D10 and HB3, and the chloroquine resistant isolates Dd2 and FCR.\n(§1) Parasite growth was determined by measuring incorporation of [^3H]-hypoxanthine into the nucleic acids of the parasite (18). Effects of the compounds of the present invention on parasite growth was determined by measuring the reduction in incorporation of radiolabel as compared to controls. […] After 18 h the plates are harvested onto glass fiber filter 96 well plates using a cell harvester, dried, and the amount of radioactivity is determined. […]\nas §1, with “as previously described (23).” for “(18).”, “The,” for “After 18 h the plates are harvested onto glass fiber filter 96 well plates using a cell harvester, dried, and the”, “was” for “is”"}, "P. falciparum": {"system": "P. falciparum", "experiment": "P. falciparum growth in culture ([3H]-hypoxanthine incorporation)", "format": "cell-based", "details": "Plasmodium falciparum, Table 3, naphthothiazolium salts, in culture, read-out: IC50 vs. P. falc."}, "synthetic hemozoin": {"system": "synthetic hemozoin", "experiment": "Depolymerization of synthetic hemozoin in vitro", "format": "biochemical", "details": "Table 3; 50 mM test compound, acetate buffer pH 5.0, 37° C., 16 hours", "experimental": "This activity is evaluated by incubating a suspension of monomer-free hemozoin at 37° C. with compounds of the present invention for 16 hours. After incubation, hemozoin is separated from any solubilized heme and soluble heme oligomers, the oligomers depolymerized, and the heme present in the supernatants determined.\nThe synthesis of synthetic hemozoin is carried out as previously described (26). In brief, 60 μmoles of hematin was dissolved in 8 ml of 0.1N NaOH. Following dissolution 49 mmoles of glacial acetic acid was added and the suspension heated at 70° C. overnight. The precipitate was then washed extensively with LPS-free water. In order to remove unreacted heme the precipitate was extracted with 0.1M sodium bicarbonate (pH 9.1) for three hours. The remaining insoluble material was recovered by centrifugation, resuspended in EtOH and transferred to sterile Eppendorf tubes. The material was washed several times in EtOH and finally resuspended in LPS-free double-distilled H2O. The hemozoin preparation was then tested for endotoxin by using the Limulus Amebocyte Lysate test following manufacturer's instructions. Although the preparation of LPS-free hemozoin from native or synthetic sources is not critical for in vitro depolymerization studies, it is critical for studies involving monocytes and animals (see Examples below). Small amounts of LPS can evoke a considerable cytokine response and interfere with interpretation of results. The amount of heme in the final product was determined from a small aliquot using the pyridine-hemochrome method as previously described (26). The preparations are stored at 4° C. until used.\nA suspension of monomer-free hemozoin (equivalent to 2 mM free heme) as prepared above was incubated at 37° C. with […] test compound in total volume of 500 μl in acetate buffer (pH: 5.0) in siliconized Eppendorf tubes (Brinkmann Instruments, Westbury, N.Y.) for 16 hours. A control sample containing distilled H2O instead of hemozoin was included. The samples were centrifuged at 14,000 rpm (Eppendorf centrifuge model 5415C, Brinkmann Instruments, Westbury, N.Y.) for 20 min; then 225 μl supernatant was diluted in 175 μl acetate buffer (pH 5.0). Another 225 μl was added to 175 μl 0.5 M NaOH to dissolve possible oligomeric depolymerization products to monomers. Half of the pellet was washed twice for 2.5 hr in 200 μl 2.5% SDS (v/v) in dH2O, the other half was washed twice in 200 μl HCO3^− buffer (pH: 9.1). Both sample supernatants and SDS and HCO3^− buffer supernatants were centrifuged 14,000 rpm for 20 min. and supernatants were added to 10 μl sodium dithionite (200 mg/ml dH2O) to reduce the heme monomers in solution to Fe^2+. All samples were measured in triplicate at 540 nm (Model UV1601 spectrophotometer, Shimradzu Corp, Columbia, Md.). The OD obtained from the blind sample was subtracted from the OD of the hemozoin containing sample."}, "[2]": {"system": "freshly isolated human monocytes", "experiment": "Spontaneous and PMA-elicited oxidative burst by freshly isolated human monocytes", "format": "cell-based", "details": "compound 25 uM, PMA 200 nM", "experimental": "Furthermore, Arese and colleagues have data supporting the role of the ingested hemozoin in macrophage dysfunction. Therefore, the compounds of the present invention were evaluated to assess their ability to induce recovery of macrophage effector functions induced by hemozoin. Initially, the effect of the compounds of the present invention were evaluated on spontaneous and PMA-elicited oxidative burst by freshly isolated human monocytes. As will be elaborated upon in the Examples below, freshly isolated human monocytes were plated at 5×10^6 cells/ml, and allowed to equilibrate to 37° C. for 1 h. Compounds of the instant invention were added at a final concentration of 25 uM and PMA added to 200 nM final concentration. Cell suspension aliquots were taken at 30, 60, and 120 minutes, and 14 hours. The oxidative burst was measured by luminol-elicited chemiluminescence for 30 sec., and data expressed as counts per 0.5×10^6 cells."}, "[3]": {"system": "hemozoin ingested by human monocytes", "experiment": "Breakdown of macrophage-ingested hemozoin", "format": "cell-based", "details": "25 μM compound, FIG. 1", "experimental": "A further evaluation of compounds was performed for activity against pathophysiological effects of hemozoin on the host, using hemozoin-laden macrophages in culture. Freshly-isolated human monocytes were suspended in medium and hemozoin at a concentration reflective of the amount of hemozoin released into circulation during schizogony. In order to maximize contact between hemozoin and monocytes, the cell preparations were centrifuged for 5 sec at 150×g. Ingestion of hemozoin is essentially complete by two hours. Cells were then washed, plated and kept in a humidified incubator. The test compounds of the present invention were added to the wells at concentrations ranging from 0 to 20 mM. Macrophage viability was determined by direct microscopic examination (gross morphology and detachment from the well), trypan blue exclusion method, and LDH release. […] At various times post-treatment (1 hour; 3 hours), cells were lysed, extensively washed and spun down (2500×g) to pellet any cellular components including hemozoin. The lysates were then treated with alkali to dissolve hemozoin to give monomeric heme (35). Monomeric heme was quantified as described above.\nHuman monocytes were freshly isolated from a buffy coat from a normal donor using Percoll gradients. […] Cells were solubilized at various time points and hemozoin content determined by luminol-elicited chemiluminescence."}}, "data": [{"smiles": "Cc1c(O)c2ccccc2c2c1sc(NCCCN1CCN(C)CC1)[n+]2C.[Cl-]", "note": "[1,2-dihydro-1,4-dimethyl-2-[[3-(4-methyl-1-piperazinyl)propyl]imino]naphtho[1,2-d]thiazol-5-ol trihydrochloride]", "values": [{"measurement": "IC50", "setting": "[1]", "result": 500, "unit": "nM"}, {"measurement": "IC50", "setting": "P. falciparum", "result": 75, "unit": "nM"}, {"measurement": "% depol. hemoz.", "setting": "synthetic hemozoin", "result": 2.0, "unit": "%"}]}, {"smiles": "Cc1c(O)c2ccccc2c2c1sc(NC1CCCCC1)[n+]2CCCN(C)C.Cl.[Cl-]", "note": "[2-(cyclohexylimino)-1,2-dihydro-4-methyl-1-[3-(dimethylamino)propyl]naphtho[1,2-d]thiazol-5-ol dihydrochloride]", "values": [{"measurement": "IC50", "setting": "[1]", "result": 75, "unit": "nM"}, {"measurement": "oxidative burst (luminol-elicited chemiluminescence)", "setting": "[2]", "result": "strong inhibitor"}, {"measurement": "hemozoin content of monocytes after phagocytosis of hemozoin (luminol-elicited chemiluminescence)", "setting": "[3]", "result": "hemozoin-dissolving ability"}, {"measurement": "IC50", "setting": "P. falciparum", "result": 75, "unit": "nM"}, {"measurement": "% depol. hemoz.", "setting": "synthetic hemozoin", "result": 2.2, "unit": "%"}]}]}
